US20170151333A1, “NOVEL CATIONIC LIPIDS AND METHODS OF USE THEREOF” (PROTIVA BIOTHERAPEUTICS, INC., priority 2010, published 2017)

System: Liver ApoB mRNA
Assay: Liver ApoB mRNA knockdown by 1:57 SNALP containing cationic lipid and ApoB siRNA in mice (branched DNA QuantiGene assay)
Type: in vivo
Settings: Balb/c mice; for ApoB knockdown relative to PBS control (%): 1:57 SNALP containing the cationic lipid with ApoB siRNA, liver ApoB:GAPD mRNA, 48 h, n = 3; for ApoB silencing activity compared to a SNALP formulation containing the C2K benchmark cationic lipid: 1:57 SNALP with ApoB siRNA, administered at the same dose as C2K SNALP
Text: In some embodiments, siRNA molecules were encapsulated into serum-stable nucleic acid-lipid particles (SNALP) composed of the following lipids: (1) the lipid conjugate PEG2000-C-DMA (3-N-[(-methoxypoly(ethylene glycol)2000)carbamoyl]-1,2-dimyristyloxypropylamine); (2) one or more cationic lipids or salts thereof (e.g., cationic lipids of Formula I of the invention and/or other cationic lipids described herein); (3) the phospholipid DPPC (1,2-dipalmitoyl-sn-glycero-3-phosphocholine) (Avanti Polar Lipids; Alabaster, Ala.); and (4) synthetic cholesterol (Sigma-Aldrich Corp.; St. Louis, Mo.) in the molar ratio 1.4:57.1:7.1:34.3, respectively. In other words, siRNA molecules were encapsulated into SNALP of the following “1:57” formulation: 1.4% PEG2000-C-DMA; 57.1% cationic lipid; 7.1% DPPC; and 34.3% cholesterol. It should be understood that the 1:57 formulation is a target formulation, and that the amount of lipid (both cationic and non-cationic) present and the amount of lipid conjugate present in the formulation may vary. Typically, in the 1:57 formulation, the amount of cationic lipid will be 57.1 mol %±5 mol %, and the amount of lipid conjugate will be 1.4 mol %±0.5 mol %, with the balance of the 1:57 formulation being made up of non-cationic lipid (e.g., phospholipid, cholesterol, or a mixture of the two).
SNALP formulations were administered by IV injection at 0.033 mg/kg or at 0.05 mg/kg into Balb/c mice (n=3 per group). Liver ApoB mRNA levels were evaluated at 48 hours after SNALP administration by a branched DNA assay (QuantiGene assay) to assess ApoB mRNA relative to the housekeeping gene GAPDH.

| SMILES | ApoB knockdown relative to PBS control (%) (IV 0.033 mg/kg) | ApoB silencing activity compared to a SNALP formulation containing the C2K benchmark cationic lipid | ApoB knockdown relative to PBS control (%) (IV 0.05 mg/kg) |
| --- | --- | --- | --- |
| CC/C=C\CCCN(CCCN(C)C)C(=O)OC(CCCCCCC/C=C\C/C=C\CCCCC)CCCCCCCCC/C=C\C/C=C\CCCCC (centres unmarked) [Compound 28, (6Z,9Z,28Z,31Z)-heptatriaconta-6,9,28,31-tetraen-18-yl 3-(dimethylamino)propyl((Z)-hept-4-enyl)carbamate] | −68 | unexpectedly improved ApoB silencing activity | – |
| CCCCC/C=C\C/C=C\CCCCCCCCC(CCCCCCCC/C=C/C/C=C/CCCCC)OC(=O)CCCN(C)C (centres unmarked) [Compound 25, (6Z,9Z,28E,31E)-heptatriaconta-6,9,28,31-tetraen-19-yl 4-(dimethylamino)butanoate] | – | – | −66 |
| CC/C=C\C/C=C\C/C=C\CCCCCCCCC(CCCCCCCC/C=C\C/C=C\C/C=C\CC)OCCCN(C)C [Compound 34, 3-((3Z,6Z,9Z,28Z,31Z,34Z)-heptatriaconta-3,6,9,28,31,34-hexaen-19-yloxy)-N,N-dimethylpropan-1-amine] | −41 | – | – |
| CCCCC/C=C\C/C=C\CCCCCCCCC(CCCCCCCC/C=C\C/C=C\CCCCC)OC(=O)N(C)CCCN(CC)CC [Compound 31, (6Z,9Z,28Z,31Z)-heptatriaconta-6,9,28,31-tetraen-19-yl (3-(diethylamino)propyl)(methyl)carbamate] | – | – | −62 |
| CCC1CC1CC1CC1CC1CC1CCCCCCCCC(CCCCCCCCC1CC1CC1CC1CC1CC1CC)OC(=O)CCCN(C)C (centres unmarked) [Compound 5] | −56 | – | – |
| CCCCC/C=C\C/C=C\CCCCCCCCC(CCCCCCCC/C=C\C/C=C\CCCCC)OC(=O)N(C)CCCN(C)CC [Compound 30, (6Z,9Z,28Z,31Z)-heptatriaconta-6,9,28,31-tetraen-19-yl (3-(ethyl(methyl)amino)propyl)(methyl)carbamate] | – | – | −65 |
| CCC/C=C\C/C=C\CCCCCCCCC(CCCCCCCC/C=C\C/C=C\CCCCC)OC(=O)N(C)CCCN(C)C (centres unmarked) [Compound 10, MC3MC] | −50 | – | – |
| CC(C)CCCC(C)CCCC(C)CCCC(C)CCC(CCC(C)CCCC(C)CCCC(C)CCCC(C)C)OC(=O)CCCCN(C)C (centres unmarked) [Compound 18, Phytanyl-MC4] | – | – | −46 |
| CCCCC/C=C\C/C=C\C/C=C\CCCCCC(CCCCC/C=C\C/C=C\C/C=C\CCCCC)OC(=O)CCCN(C)C [Compound 8, γ-LenMC3] | −71 | unexpectedly improved ApoB silencing activity | – |
| CCCCC/C=C\C/C=C\CCCCCCCCCC(CCCCCCC/C=C\C/C=C\CCCCC)OC(=O)N(CC)CCN(C)C (centres unmarked) [Compound 29, (6Z,9Z,28Z,31Z)-heptatriaconta-6,9,28,31-tetraen-18-yl 2-(dimethylamino)ethyl(ethyl)carbamate] | – | – | −59 |
| CCCCC/C=C\C/C=C\CCCCCCCCC(CCCCCCCC/C=C\C/C=C\CCCCC)OCCCN(C)C [Compound 13, 3-((6Z,9Z,28Z,31Z)-heptatriaconta-6,9,28,31-tetraen-19-yloxy)-N,N-dimethylpropan-1-amine] | −69 | unexpectedly improved ApoB silencing activity | – |
| CCCCC/C=C\C/C=C\CCCCCCCCC(CCCCCCCC/C=C\C/C=C\CCCCC)OC(=O)N(C)CCN(C)C [Compound 11, MC2MC] | – | – | −54 |
| CCCCC/C=C\C/C=C\CCCCCCCCC(CCCCCCCC/C=C\C/C=C\CCCCC)SC(=O)CCCN(C)C [Compound 20, S-(6Z,9Z,28Z,31Z)-heptatriaconta-6,9,28,31-tetraen-19-yl 4 (dimethylamino) butanethioate] | – | – | −50 |
| CCCCC/C=C\C/C=C\CCCCCCCCC(CCCCCCCC/C=C\C/C=C\CCCCC)OC(=O)CCCN(C)C [Compound 1, (6Z,9Z,28Z,31Z)-heptatriaconta-6,9,28,31-tetraen-19-yl 4-(dimethylamino)butanoate] | −71 | unexpectedly improved ApoB silencing activity | −81 |
| CC/C=C\C/C=C\C/C=C\CCCCCCCCC(CCCCCCCC/C=C\C/C=C\C/C=C\CC)OC(=O)CCCN(C)C [Compound 4, LenMC3] | −78 | unexpectedly improved ApoB silencing activity | – |
| CCCCC/C=C\C/C=C\CCCCCCCCCC(CCCCCCC/C=C\C/C=C\CCCCC)OC(=O)N(CCCCCC)CCCN(C)C (centres unmarked) [Compound 27, (6Z,9Z,28Z,31Z)-heptatriaconta-6,9,28,31-tetraen-18-yl 3-(dimethylamino)propyl(hexyl)carbamate] | −66 | unexpectedly improved ApoB silencing activity | – |
| CCCCCC/C=C/C=C\CCCCCCCCC(CCCCCCCC/C=C\C=C\CCCCCC)OCCCN(C)C [Compound 41, 3-((7E,9Z,28Z,30E)-heptatriaconta-7,9,28,30-tetraen-19-yloxy)-N,N-dimethylpropan-1-amine] | −52 | – | – |
| CC/C=C\C/C=C\C/C=C\CCCCCCCCC(CCCCCCCC/C=C\C/C=C\C/C=C\CC)OCCCCN(C)C [Compound 35, 4-((3Z,6Z,9Z,28Z,31Z,34Z)-heptatriaconta-3,6,9,28,31,34-hexaen-19-yloxy)-N,N-dimethylbutan-1-amine] | −78 | unexpectedly improved ApoB silencing activity | – |
| CCCCC/C=C\C/C=C\CCCCCCCCC(CCCCCCCC/C=C\C/C=C\CCCCC)OCCCCN(C)C [Compound 15, MC4 Ether] | – | unexpectedly improved ApoB silencing activity | −77 |
| CCCCCC1CC1CC1CC1CC1CC1CCCCCC(CCCCCC1CC1CC1CC1CC1CC1CCCCC)OC(=O)CCCN(C)C (centres unmarked) [Compound 9, CP-γ-LenMC3] | −54 | – | – |
| CCCCC/C=C\C/C=C\CCCCCCCC(O)C(CCCCCCC/C=C\C/C=C\CCCCC)OC(=O)CCN(C)C (centres unmarked) [Compound 22, (6Z,9Z,27Z,30Z)-19-hydroxyhexatriaconta-6,9,27,30-tetraen-18-yl 3-(dimethylamino)propanoate] | −30 | – | – |
| CCCCC/C=C\C/C=C\CCCCCCCC(=O)C(CCCCCCC/C=C\C/C=C\CCCCC)OC(=O)CCCN(C)C (centres unmarked) [Compound 23, (6Z,9Z,27Z,30Z)-19-oxohexatriaconta-6,9,27,30-tetraen-18-yl 4-(dimethylamino)butanoate] | −33 | – | – |
| CC(C)CCCC(C)CCCC(C)CCCC(C)CCC(CCC(C)CCCC(C)CCCC(C)CCCC(C)C)OC(=O)CCCN(C)C (centres unmarked) [Compound 17, Phytanyl-MC3] | – | – | −14 |
| CCCCC/C=C/C/C=C/CCCCCCCCC(CCCCCCCC/C=C/C/C=C/CCCCC)OC(=O)CCCN(C)C [Compound 40, (6E,9E,28E,31E)-heptatriaconta-6,9,28,31-tetraen-19-yl 4-(dimethylamino)butanoate] | – | – | −58 |
| CCCCC/C=C\C/C=C\CCCCCCCCC1(CCCCCCCC/C=C\C/C=C\CCCCC)OCC(CCN(C)C)O1 (centres unmarked) [Compound C2K, 2,2-dilinoleyl-4-(2-dimethylaminoethyl)-[1,3]-dioxolane, reference compound] | −51 | – | −66 |
